Data as given in US20180244699A1, “1-HYDROXY-3H-2,1-BENZOXABOROLE DERIVATIVES AND THEIR USE AS MICROBIOCIDES” (Syngenta Participations AG, priority 2015, published 2018).

Tests used:
Type in all cases: cell-based
[1] = system: Pythium ultimum; assay: Pythium ultimum / liquid culture (seedling damping off); conditions: Globisporangium ultimum, growth inhibition photometrically 2-3 days after application, compared to untreated control
Protocol: 15. Pythium ultimum/Liquid Culture (Seedling Damping Off) Mycelia fragments and oospores of a newly grown liquid culture of the fungus are directly mixed into nutrient broth (PDB potato dextrose broth). After placing a (DMSO) solution of test compound into a microtiter plate (96-well format), the nutrient broth containing the fungal mycelia/spore mixture is added. The test plates are incubated at 24° C. and the inhibition of growth is determined photometrically 2-3 days after application.

[2] = system: Mycosphaerella graminicola (Septoria tritici); assay: Mycosphaerella graminicola (Septoria tritici) / liquid culture (Septoria blotch); conditions: Zymoseptoria tritici, growth inhibition photometrically 4-5 days after application, compared to untreated control
Protocol: (§1) 18. Mycosphaerella graminicola (Septoria tritici)/Liquid Culture (Septoria Blotch) Conidia of the fungus from cryogenic storage are directly mixed into nutrient broth (PDB potato dextrose broth). After placing a (DMSO) solution of test compound into a microtiter plate (96-well format), the nutrient broth containing the fungal spores is added. The test plates are incubated at 24° C. and the inhibition of growth is determined photometrically 4-5 days after application.

[3] = system: Monographella nivalis (Microdochium nivale); assay: Monographella nivalis (Microdochium nivale) / liquid culture (foot rot cereals); conditions: growth inhibition photometrically 4-5 days after application, compared to untreated control
Protocol: as §1, with “8. Monographella nivalis (Microdochium nivale)/Liquid” for “18. Mycosphaerella graminicola (Septoria tritici)/Liquid”, “(Foot Rot Cereals)” for “(Septoria Blotch)”

[4] = system: Gaeumannomyces graminis; assay: Gaeumannomyces graminis / liquid culture (take-all of cereals); conditions: growth inhibition photometrically 4-5 days after application, compared to untreated control
Protocol: 6. Gaeumannomyces Graminis/Liquid Culture (Take-all of Cereals) Mycelial fragments of the fungus from cryogenic storage were directly mixed into nutrient broth (PDB potato dextrose broth). After placing a (DMSO) solution of test compound into a microtiter plate (96-well format), the nutrient broth containing the fungal spores is added. The test plates are incubated at 24° C. and the inhibition of growth is determined photometrically 4-5 days after application.

[5] = system: Glomerella lagenarium (Colletotrichum lagenarium); assay: Glomerella lagenarium (Colletotrichum lagenarium) / liquid culture (anthracnose); conditions: Colletotrichum orbiculare, growth inhibition photometrically 3-4 days after application, compared to untreated control
Protocol: as §1, with “3. Glomerella lagenarium (Colletotrichum lagenarium)/Liquid” for “18. Mycosphaerella graminicola (Septoria tritici)/Liquid”, “(Anthracnose)” for “(Septoria Blotch)”, “measured” for “determined”, “3-4” for “4-5”

[6] = system: Thanatephorus cucumeris (Rhizoctonia solani); assay: Thanatephorus cucumeris (Rhizoctonia solani) / liquid culture (foot rot, damping-off); conditions: growth inhibition photometrically 3-4 days after application, compared to untreated control
Protocol: 16. Thanatephorus cucumeris (Rhizoctonia solani)/Liquid Culture (Foot Rot, Damping-Off) Mycelia fragments of a newly grown liquid culture of the fungus are directly mixed into nutrient broth (PDB potato dextrose broth). After placing a (DMSO) solution of the test compounds into a microtiter plate (96-well format), the nutrient broth containing the fungal material is added. The test plates are incubated at 24° C. and the inhibition of growth is determined photometrically 3-4 days after application.

Measured: inhibition of growth at 20 ppm

COc1c(C(=O)OCC(F)(F)F)ccc2c1B(O)OC2 [Compound 10, 2,2,2-trifluoroethyl 1-hydroxy-7-methoxy-3H-2,1-benzoxaborole-6-carboxylate]
not listed: [6]
≥ 80%: all other assays above

COc1c(C(=O)OCCOc2ccccc2C)ccc2c1B(O)OC2 [Compound 82, 2-(2-methylphenoxy)ethyl 1-hydroxy-7-methoxy-3H-2,1-benzoxaborole-6-carboxylate]
not listed: [6]
≥ 80%: all other assays above

COc1c(C(=O)OC(C)c2cccc(Cl)c2)ccc2c1B(O)OC2 (centres unmarked) [Compound 83, 1-(3-chlorophenyl)ethyl 1-hydroxy-7-methoxy-3H-2,1-benzoxaborole-6-carboxylate]
≥ 80%: all assays above

COc1c(C(=O)OCc2ccccc2)ccc2c1B(O)OC2 [Compound 85, benzyl 1-hydroxy-7-methoxy-3H-2,1-benzoxaborole-6-carboxylate]
≥ 80%: all assays above

COc1c(C(=O)OCc2cccc(C(F)(F)F)c2)ccc2c1B(O)OC2 [Compound 88, [3-(trifluoromethyl)phenyl]methyl 1-hydroxy-7-methoxy-3H-2,1-benzoxaborole-6-carboxylate]
≥ 80%: [1] | [3] | [4]

COc1c(C(=O)OC(CC(F)(F)F)c2ccccc2)ccc2c1B(O)OC2 (centres unmarked) [Compound 89, (3,3,3-trifluoro-1-phenyl-propyl) 1-hydroxy-7-methoxy-3H-2,1-benzoxaborole-6-carboxylate]
not listed: [2]
≥ 80%: all other assays above

COC(=O)Nc1ccc(COC(=O)c2ccc3c(c2OC)B(O)OC3)cc1 [Compound 90, [4-(methoxycarbonylamino)phenyl]methyl 1-hydroxy-7-methoxy-3H-2,1-benzoxaborole-6-carboxylate]
≥ 80%: [1] | [3] | [4]

COc1c(C(=O)OCc2c(Cl)cc(O)cc2Cl)ccc2c1B(O)OC2 [Compound 92, (2,6-dichloro-4-hydroxy-phenyl)methyl 1-hydroxy-7-methoxy-3H-2,1-benzoxaborole-6-carboxylate]
≥ 80%: [1] | [3] | [4]

COc1c(C(=O)OCC(C)(C)c2nnc(S)nc2O)ccc2c1B(O)OC2 [Compound 95, [2-(5-hydroxy-3-sulfanyl-1,2,4-triazin-6-yl)-2-methyl-propyl] 1-hydroxy-7-methoxy-3H-2,1-benzoxaborole-6-carboxylate]
≥ 80%: [1] | [3] | [4]

COc1c(C(=O)OCc2nc(C)cs2)ccc2c1B(O)OC2 [Compound 96, (4-methylthiazol-2-yl)methyl 1-hydroxy-7-methoxy-3H-2,1-benzoxaborole-6-carboxylate]
≥ 80%: [1] | [3] | [4]

CCCC1OCC(C)(COC(=O)c2ccc3c(c2OC)B(O)OC3)CO1 (centres unmarked) [Compound 98, (5-methyl-2-propyl-1,3-dioxan-5-yl)methyl 1-hydroxy-7-methoxy-3H-2,1-benzoxaborole-6-carboxylate]
≥ 80%: [1] | [3] | [4]

COc1c(C(=O)OCC2SCCS2)ccc2c1B(O)OC2 [Compound 100, 1,3-dithiolan-2-ylmethyl 1-hydroxy-7-methoxy-3H-2,1-benzoxaborole-6-carboxylate]
not listed: [2]
≥ 80%: all other assays above

COc1c(C(=O)OC2CC=CC2)ccc2c1B(O)OC2 [Compound 104, cyclopent-3-en-1-yl 1-hydroxy-7-methoxy-3H-2,1-benzoxaborole-6-carboxylate]
not listed: [6]
≥ 80%: all other assays above

CCOC(=O)COC(=O)c1ccc2c(c1OC)B(O)OC2 [Compound 111, (2-ethoxy-2-oxo-ethyl) 1-hydroxy-7-methoxy-3H-2,1-benzoxaborole-6-carboxylate]
not listed: [2]
≥ 80%: all other assays above

COc1c(C(=O)OCc2cc(C)cc(C)c2)ccc2c1B(O)OC2 [Compound 116, (3,5-dimethylphenyl)methyl 1-hydroxy-7-methoxy-3H-2,1-benzoxaborole-6-carboxylate]
≥ 80%: [1] | [3] | [4]

COc1c(C(=O)OCC(C)(C)Cc2ccccc2)ccc2c1B(O)OC2 [Compound 117, (2,2-dimethyl-3-phenyl-propyl) 1-hydroxy-7-methoxy-3H-2,1-benzoxaborole-6-carboxylate]
not listed: [1]
≥ 80%: all other assays above

COc1c(C(=O)OCC2CC2C)ccc2c1B(O)OC2 (centres unmarked) [Compound 118, (2-methylcyclopropyl)methyl 1-hydroxy-7-methoxy-3H-2,1-benzoxaborole-6-carboxylate]
not listed: [6]
≥ 80%: all other assays above

C#CC(CC)OC(=O)c1ccc2c(c1OC)B(O)OC2 (centres unmarked) [Compound 121, 1-ethylprop-2-ynyl 1-hydroxy-7-methoxy-3H-2,1-benzoxaborole-6-carboxylate]
≥ 80%: [1] | [3] | [4] | [5]

CCOC(=O)[C@H](C)OC(=O)c1ccc2c(c1OC)B(O)OC2 [Compound 125, [(1S)-2-ethoxy-1-methyl-2-oxo-ethyl] 1-hydroxy-7-methoxy-3H-2,1-benzoxaborole-6-carboxylate]
≥ 80%: [1] | [3] | [4]

COc1ccc(COC(=O)c2ccc3c(c2OC)B(O)OC3)cc1 [Compound 127, (4-methoxyphenyl)methyl 1-hydroxy-7-methoxy-3H-2,1-benzoxaborole-6-carboxylate]
≥ 80%: [1] | [3] | [4] | [5]

COc1ccccc1COC(=O)c1ccc2c(c1OC)B(O)OC2 [Compound 128, (2-methoxyphenyl)methyl 1-hydroxy-7-methoxy-3H-2,1-benzoxaborole-6-carboxylate]
≥ 80%: [1] | [3] | [4]

COc1c(C(=O)OCCC(C)C)ccc2c1B(O)OC2 [Compound 129, isopentyl 1-hydroxy-7-methoxy-3H-2,1-benzoxaborole-6-carboxylate]
not listed: [6]
≥ 80%: all other assays above
